Laboratory results from patent publication US20160223562A1, “Method for Determining the Concentration of a Peptide” (JPT Peptide Technologies GmbH, priority 2010, published 2016).
Square brackets hold non-standard residues; d marks the D form. Peptide text beside a SMILES is read from it. Tyr(3-NO2) = N[C@@H](Cc1ccc(O)c([N+](=O)[O-])c1)C(=O)O

Molecular target: T1, Trypsin (Sus scrofa, UniProt P00761)
T1 construct: purchased Promega Corporation V511
Assay: Trypsin cleavage of N-terminal quantification tag Ac-nitroTyr-SGK- from peptides, LC-MS with UV detection at 350 nm
Type: biochemical
Conditions: trypsin protocol of example 9, 24 h, RT
Protocol: Trypsin Activation: Trypsin (20 μg, sequencing grade modified trypsin, Promega Corporation, Madison, Wis., USA, catalogue no. V511, specific activity 16.965 u/mg) was dissolved in Trypsin resuspension buffer (200 μL, Promega, catalogue no. V542A, ingredient 50 mM acetic acid) and incubated for 15 min at 37° C.
Reduction and alkylation: The peptide (approx. 0.05 mg) was dissolved in 1 M urea and 100 mM fresh ammonium hydrogen carbonate (300 μL). TCEP (Tris(2-carboxyethyl) phosphine hydrochloride, 0.2 M, 7.5 μL, final concentration 5 mM) was added and the solution incubated at 37° C. for 1 h. After addition of iodoacetamide (0.5 M, 6.0 μL, final concentration 10 mM) the solution was incubated at RT in the dark for another 30 min. Digestion: The sample was digested with activated Trypsin solution (10 μL per well, 1.0 μg, resulting enzyme/substrate ratio 1:50) over night at RT. To stop the digestion, HCl (2 M, 8 μL final concentration 50 mM) and TFA (3.2 μL, final concentration 1%, pH<2) were added. Finally, the sample was analyzed by LC-MS at 350 nm.
38 peptides carrying the N-terminal quantification-tag Ac-nitroTyr-SGK-(SEQ ID NO:32) were synthesized by SPOT synthesis (Table 3). The peptide sequences are based on two different amino acid sequences, which in each case contain 19 different amino acids N-terminally attached to lysine (the 20 naturally occurring amino acids except cysteine).
All peptides were subjected to the same trypsin cleavage protocol as described in example 9. It is apparent that the quantification tag is efficiently cleaved (>99%) in nearly all cases.

T1 sequence (P00761 9-231): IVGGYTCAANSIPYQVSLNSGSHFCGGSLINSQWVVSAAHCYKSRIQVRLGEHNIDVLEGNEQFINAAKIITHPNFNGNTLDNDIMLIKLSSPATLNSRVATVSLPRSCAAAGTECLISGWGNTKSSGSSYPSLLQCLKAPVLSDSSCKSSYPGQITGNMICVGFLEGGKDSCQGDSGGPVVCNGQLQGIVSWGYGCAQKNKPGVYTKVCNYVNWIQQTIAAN

Compound	Kusebauch 24 h, RT: Percent Cleavage of Tag [by UV350 - Peptide-Tag vs. Tag] [%]
CC(=O)N[C@@H](Cc1ccc(O)c([N+](=O)[O-])c1)C(=O)N[C@@H](CO)C(=O)NCC(=O)N[C@@H](CCCCN)C(=O)NCC(=O)N[C@H](C(=O)N[C@@H](C)C(=O)N[C@@H](CC(C)C)C(=O)N[C@@H](CO)C(=O)N[C@@H](CC(C)C)C(=O)N[C@@H](CC(=O)O)C(=O)N[C@@H](CC(=O)O)C(=O)N[C@H](C(=O)N[C@@H](CCCCN)C(=O)O)C(C)C)C(C)C [Peptide 26, Ac-nitroTyr-SGKGVALSLDDV-K-OH] (Ac-[Tyr(3-NO2)]SGKGVALSLDDVK-OH)	99.3
CSCC[C@H](NC(=O)[C@H](CCCCN)NC(=O)CNC(=O)[C@H](CO)NC(=O)[C@H](Cc1ccc(O)c([N+](=O)[O-])c1)NC(C)=O)C(=O)N[C@H](C(=O)N[C@@H](C)C(=O)N[C@@H](CC(C)C)C(=O)N[C@@H](CO)C(=O)N[C@@H](CC(C)C)C(=O)N[C@@H](CC(=O)O)C(=O)N[C@@H](CC(=O)O)C(=O)N[C@H](C(=O)N[C@@H](CCCCN)C(=O)O)C(C)C)C(C)C [Peptide 31, Ac-nitroTyr-SGKMVALSLDDV-K-OH] (Ac-[Tyr(3-NO2)]SGKMVALSLDDVK-OH)	100.0
CC(=O)N[C@@H](Cc1ccc(O)c([N+](=O)[O-])c1)C(=O)N[C@@H](CO)C(=O)NCC(=O)N[C@@H](CCCCN)C(=O)N[C@@H](CC(C)C)C(=O)N[C@H](C(=O)N[C@@H](C)C(=O)N[C@@H](CC(C)C)C(=O)N[C@@H](CO)C(=O)N[C@@H](CC(C)C)C(=O)N[C@@H](CC(=O)O)C(=O)N[C@@H](CC(=O)O)C(=O)N[C@H](C(=O)N[C@@H](CCCCN)C(=O)O)C(C)C)C(C)C [Peptide 30, Ac-nitroTyr-SGKLVALSLDDV-K-OH] (Ac-[Tyr(3-NO2)]SGKLVALSLDDVK-OH)	100.0
CC[C@H](C)[C@H](NC(=O)[C@H](CCCCN)NC(=O)CNC(=O)[C@H](CO)NC(=O)[C@H](Cc1ccc(O)c([N+](=O)[O-])c1)NC(C)=O)C(=O)N[C@H](C(=O)N[C@@H](C)C(=O)N[C@@H](CC(C)C)C(=O)N[C@@H](CO)C(=O)N[C@@H](CC(C)C)C(=O)N[C@@H](CC(=O)O)C(=O)N[C@@H](CC(=O)O)C(=O)N[C@H](C(=O)N[C@@H](CCCCN)C(=O)O)C(C)C)C(C)C [Peptide 28, Ac-nitroTyr-SGKIVALSLDDV-K-OH] (Ac-[Tyr(3-NO2)]SGKIVALSLDDVK-OH)	100.0
CC(=O)N[C@@H](Cc1ccc(O)c([N+](=O)[O-])c1)C(=O)N[C@@H](CO)C(=O)NCC(=O)N[C@@H](CCCCN)C(=O)N[C@@H](CCCNC(=N)N)C(=O)N[C@H](C(=O)N[C@@H](C)C(=O)N[C@@H](CC(C)C)C(=O)N[C@@H](CO)C(=O)N[C@@H](CC(C)C)C(=O)N[C@@H](CC(=O)O)C(=O)N[C@@H](CC(=O)O)C(=O)N[C@H](C(=O)N[C@@H](CCCCN)C(=O)O)C(C)C)C(C)C [Peptide 35, Ac-nitroTyr-SGKRVALSLDDV-K-OH] (Ac-[Tyr(3-NO2)]SGKRVALSLDDVK-OH)	100.0
CC(=O)N[C@@H](Cc1ccc(O)c([N+](=O)[O-])c1)C(=O)N[C@@H](CO)C(=O)NCC(=O)N[C@@H](CCCCN)C(=O)N[C@@H](CCC(=O)O)C(=O)N[C@H](C(=O)N[C@@H](C)C(=O)N[C@@H](CC(C)C)C(=O)N[C@@H](CO)C(=O)N[C@@H](CC(C)C)C(=O)N[C@@H](CC(=O)O)C(=O)N[C@@H](CC(=O)O)C(=O)N[C@H](C(=O)N[C@@H](CCCCN)C(=O)O)C(C)C)C(C)C [Peptide 24, Ac-nitroTyr-SGKEVALSLDDV-K-OH] (Ac-[Tyr(3-NO2)]SGKEVALSLDDVK-OH)	100.0
CC(=O)N[C@@H](Cc1ccc(O)c([N+](=O)[O-])c1)C(=O)N[C@@H](CO)C(=O)NCC(=O)N[C@@H](CCCCN)C(=O)N[C@@H](CCCCN)C(=O)N[C@H](C(=O)N[C@@H](C)C(=O)N[C@@H](CC(C)C)C(=O)N[C@@H](CO)C(=O)N[C@@H](CC(C)C)C(=O)N[C@@H](CC(=O)O)C(=O)N[C@@H](CC(=O)O)C(=O)N[C@H](C(=O)N[C@@H](CCCCN)C(=O)O)C(C)C)C(C)C [Peptide 29, Ac-nitroTyr-SGKKVALSLDDV-K-OH] (Ac-[Tyr(3-NO2)]SGKKVALSLDDVK-OH)	100.0
CC(=O)N[C@@H](Cc1ccc(O)c([N+](=O)[O-])c1)C(=O)N[C@@H](CO)C(=O)NCC(=O)N[C@@H](CCCCN)C(=O)N[C@@H](Cc1ccccc1)C(=O)N[C@H](C(=O)N[C@@H](C)C(=O)N[C@@H](CC(C)C)C(=O)N[C@@H](CO)C(=O)N[C@@H](CC(C)C)C(=O)N[C@@H](CC(=O)O)C(=O)N[C@@H](CC(=O)O)C(=O)N[C@H](C(=O)N[C@@H](CCCCN)C(=O)O)C(C)C)C(C)C [Peptide 25, Ac-nitroTyr-SGKFVALSLDDV-K-OH] (Ac-[Tyr(3-NO2)]SGKFVALSLDDVK-OH)	100.0
CC(=O)N[C@@H](Cc1ccc(O)c([N+](=O)[O-])c1)C(=O)N[C@@H](CO)C(=O)NCC(=O)N[C@@H](CCCCN)C(=O)N[C@@H](CC(N)=O)C(=O)N[C@H](C(=O)N[C@@H](C)C(=O)N[C@@H](CC(C)C)C(=O)N[C@@H](CO)C(=O)N[C@@H](CC(C)C)C(=O)N[C@@H](CC(=O)O)C(=O)N[C@@H](CC(=O)O)C(=O)N[C@H](C(=O)N[C@@H](CCCCN)C(=O)O)C(C)C)C(C)C [Peptide 32, Ac-nitroTyr-SGKNVALSLDDV-K-OH] (Ac-[Tyr(3-NO2)]SGKNVALSLDDVK-OH)	100.0
CC(=O)N[C@@H](Cc1ccc(O)c([N+](=O)[O-])c1)C(=O)N[C@@H](CO)C(=O)NCC(=O)N[C@@H](CCCCN)C(=O)N[C@@H](CO)C(=O)N[C@H](C(=O)N[C@@H](C)C(=O)N[C@@H](CC(C)C)C(=O)N[C@@H](CO)C(=O)N[C@@H](CC(C)C)C(=O)N[C@@H](CC(=O)O)C(=O)N[C@@H](CC(=O)O)C(=O)N[C@H](C(=O)N[C@@H](CCCCN)C(=O)O)C(C)C)C(C)C [Peptide 36, Ac-nitroTyr-SGKSVALSLDDV-K-OH] (Ac-[Tyr(3-NO2)]SGKSVALSLDDVK-OH)	100.0
CC(=O)N[C@@H](Cc1ccc(O)c([N+](=O)[O-])c1)C(=O)N[C@@H](CO)C(=O)NCC(=O)N[C@@H](CCCCN)C(=O)N1CCC[C@H]1C(=O)N[C@H](C(=O)N[C@@H](C)C(=O)N[C@@H](CC(C)C)C(=O)N[C@@H](CO)C(=O)N[C@@H](CC(C)C)C(=O)N[C@@H](CC(=O)O)C(=O)N[C@@H](CC(=O)O)C(=O)N[C@H](C(=O)N[C@@H](CCCCN)C(=O)O)C(C)C)C(C)C [Peptide 33, Ac-nitroTyr-SGKPVALSLDDV-K-OH] (Ac-[Tyr(3-NO2)]SGKPVALSLDDVK-OH)	5.4
CC(=O)N[C@@H](Cc1ccc(O)c([N+](=O)[O-])c1)C(=O)N[C@@H](CO)C(=O)NCC(=O)N[C@@H](CCCCN)C(=O)N[C@@H](Cc1c[nH]cn1)C(=O)N[C@H](C(=O)N[C@@H](C)C(=O)N[C@@H](CC(C)C)C(=O)N[C@@H](CO)C(=O)N[C@@H](CC(C)C)C(=O)N[C@@H](CC(=O)O)C(=O)N[C@@H](CC(=O)O)C(=O)N[C@H](C(=O)N[C@@H](CCCCN)C(=O)O)C(C)C)C(C)C [Peptide 27, Ac-nitroTyr-SGKHVALSLDDV-K-OH] (Ac-[Tyr(3-NO2)]SGKHVALSLDDVK-OH)	100.0
CC(=O)N[C@@H](Cc1ccc(O)c([N+](=O)[O-])c1)C(=O)N[C@@H](CO)C(=O)NCC(=O)N[C@@H](CCCCN)C(=O)N[C@H](C(=O)N[C@H](C(=O)N[C@@H](C)C(=O)N[C@@H](CC(C)C)C(=O)N[C@@H](CO)C(=O)N[C@@H](CC(C)C)C(=O)N[C@@H](CC(=O)O)C(=O)N[C@@H](CC(=O)O)C(=O)N[C@H](C(=O)N[C@@H](CCCCN)C(=O)O)C(C)C)C(C)C)[C@@H](C)O [Peptide 37, Ac-nitroTyr-SGKTVALSLDDV-K-OH] (Ac-[Tyr(3-NO2)]SGKTVALSLDDVK-OH)	100.0
CC(=O)N[C@@H](Cc1ccc(O)c([N+](=O)[O-])c1)C(=O)N[C@@H](CO)C(=O)NCC(=O)N[C@@H](CCCCN)C(=O)N[C@H](C(=O)N[C@H](C(=O)N[C@@H](C)C(=O)N[C@@H](CC(C)C)C(=O)N[C@@H](CO)C(=O)N[C@@H](CC(C)C)C(=O)N[C@@H](CC(=O)O)C(=O)N[C@@H](CC(=O)O)C(=O)N[C@H](C(=O)N[C@@H](CCCCN)C(=O)O)C(C)C)C(C)C)C(C)C [Peptide 38, Ac-nitroTyr-SGKVVALSLDDV-K-OH] (Ac-[Tyr(3-NO2)]SGKVVALSLDDVK-OH)	100.0
CC(=O)N[C@@H](Cc1ccc(O)c([N+](=O)[O-])c1)C(=O)N[C@@H](CO)C(=O)NCC(=O)N[C@@H](CCCCN)C(=O)N[C@@H](Cc1c[nH]c2ccccc12)C(=O)N[C@H](C(=O)N[C@@H](C)C(=O)N[C@@H](CC(C)C)C(=O)N[C@@H](CO)C(=O)N[C@@H](CC(C)C)C(=O)N[C@@H](CC(=O)O)C(=O)N[C@@H](CC(=O)O)C(=O)N[C@H](C(=O)N[C@@H](CCCCN)C(=O)O)C(C)C)C(C)C [Peptide 39, Ac-nitroTyr-SGKWVALSLDDV-K-OH] (Ac-[Tyr(3-NO2)]SGKWVALSLDDVK-OH)	100.0
